Results taken from US20140377265A1, “ANTICOAGULANT ANTIDOTES” (BOEHRINGER INGELHEIM INTERNATIONAL GMBH, priority 2011, published 2014).

Columns and labels:
[1] = system: activated partial thromboplastin time; details: cited from earlier work
[2] = system: thrombin clotting time in human plasma; experiment: Thrombin clotting time assay, dabigatran standard curve in human plasma; assay type: biochemical
Protocol: Briefly human plasma is obtained by taking whole blood into 3.13% sodium citrate. This is then centrifuged to obtain platelet free plasma and transferred to a separate tube and frozen until required on the day of the assay. Plasma is thawed at 37° C. on the day of the assay.
The thrombin clotting time is performed as follows. First thrombin is diluted to manufacturer's specification (3 IU/mL thrombin) in the buffer provided (Dade Behring Test kit) and prewarmed to 37° C. It is used within 2 hrs of being prepared. All assays were performed on a commercially available CL4 clotting machine (Behnk Electronics, Norderstadt, Germany). Fifty μL of plasma is pipetted into provided cuvettes with a magnetic stirrer and allowed to stir for 2 min in the well preheated to 37° C. in the CL4 machine. At this point 100 μL of the thrombin solution is added and the time required for the plasma sample to clot is recorded automatically by the CL4.

SMILES	prolongation of the activated partial thromboplastin time compared with dabigatran [1]	thrombin clotting time ([2]; 200 nM dabigatran preincubated with human plasma) [s]	elevation in clotting time over baseline ([2]; 200 nM dabigatran, human plasma) [fold]	increase in clotting time over baseline ([2]; 500 nM dabigatran, human plasma) [fold]
Cn1c(CNc2ccc(C(=N)N)cc2)nc2cc(C(=O)N(CCC(=O)OC3OC(C(=O)O)C(O)C(O)C3O)c3ccccn3)ccc21 (stereo not shown) [1-O-acylglucuronide]	equipotent prolongation	–	–	–
Cn1c(CNc2ccc(C(=N)N)cc2)nc2cc(C(=O)N(CCC(=O)O)c3ccccn3)ccc21 [dabigatran, N-[2-(4-Amidinophenylaminomethyl)-1-methyl-1H-benzimidazol-5-ylcarbonyl]-N-(2-pyridyl)-beta-alanine]	–	51	~5	~10
